Tests used:
Format in all cases: cell-based, human
[1] = tested on: AR gene expression in LNCaP cells; assay: RT-PCR of AR expression; settings: for reduction of DHT induced AR transcription: 10 nM DHT
Protocol: Total RNA was extracted from the treated cells using RNA isolation kit obtained from Genei (Bangalore, India). The extracted RNA samples were then quantified and equal amount of the individual treatments was transcribed with the help of an RT - PCR kit from Genei (Bangalore, India) according to the manufacturer’s instruction. PCR was performed by denaturing at 94°C for 60 s, annealing at various temperatures (depending on primer pairs used) for 45 s and extension at 72°C for 2 min followed by the number of cycles for amplification. Primers for Bcl-2, Bcl-xL, Bax, AR and β-Actin were designed with the help of Primer 3 software and standardized in the laboratory. The PCR products were then separated on 2% agarose gel and visualized in a gel documentation system (Bio Rad, USA). The intensity of the bands on agarose gels were analyzed using ImageJ 1.43 software (NIH, USA) and normalized with respect to β-actin PCR products. Each of the RT-PCR was carried out three times. Table S1 presents the primer sequence, product size, annealing temperature, and number of cycles used for all primers.

[2] = tested on: AR protein in LNCaP cells; assay: Immunoblot of AR protein; settings: for inhibition of DHT induced AR protein levels: 10 nM DHT; for inhibition of AR protein levels: absence of DHT
Protocol: The whole-cell lysates were prepared as described previously in immunoprecipitation (IP) buffer containing 50 mM Tris-HCl (pH 8.0), 150 mM NaCl, 5 mM EDTA, and 1% Triton X-100. Protein aliquots of 500 μg were then incubated overnight at 4°C using 2 μg of antibody directed against AR. The Protein A-Cl Agarose beads were then added and further incubated for 6 h at 4°C. The immunoprecipitates were washed four times with the IP buffer and the immunocomplexes were recovered by boiling in SDS sample buffer. Finally the western blot was carried out using anti-AR, anti-SRC-1 and anti-GRIP-1 antibodies (Santa Cruz, CA, USA). For western blot analysis, the cell lysates were prepared after harvesting them in lysis buffer. About 40 μg of total protein was electrophoresed by 12% SDS-PAGE, and the western blotting was carried out using standard protocol. In brief, the analyzed proteins were transferred to nylon membranes. The blots were then blocked with TBST buffer (20 mM Tris-Cl, pH 7.5, 150 mM sodium chloride, 0.05% Tween-20) containing 5% skim milk powder. They were then washed with TBST buffer and incubated overnight at 4°C with the same buffer containing appropriate amounts of primary antibodies: caspase-3, Bax, Bcl-2, Akt, p-Akt, ERK, p-ERK, AR, SRC-1, GRIP-1 (1∶500) and β-actin (1∶1000). The blots were then washed and incubated with anti-rabbit secondary antibody (1∶20,000) conjugated with horseradish peroxidase (HRP). Color development was performed in the dark by using an ECL kit (Amersham, GE Healthcare, Buckinghamshire, UK). The developed blots were subjected to densitometric analysis by ImageJ 1.43 software (NIH, USA) using β-actin as internal control.

[3] = tested on: caspase-3 activity in LNCaP cells; assay: Caspase colorimetric protease assay; settings: 24 h
Protocol: (§1) Caspase activity was determined using ApoTarget caspase colorimetric protease assay sampler kit (KHZ1001; Invitrogen) according to the manufacturer’s instructions. Briefly, both the PCa cells were treated with increasing doses of conjugate and RESV for 24 h. The cells were then collected, washed in PBS, and lysed in 50 μl lysis buffer on ice for 10 min. After centrifugation, the supernatant containing 150 μg proteins were incubated with 200 μM of caspase-3 (Ac-DEVD-pNA), caspase-8 (Ac-IETD-pNA) and caspase-9 (Ac-LEHD-pNA) substrates respectively in reaction buffer at 37°C for 1 h in 96 well flat bottom plate. Levels of released pNA were then measured at 405 nm wavelength with ELISA plate reader (Fluostar optima, BMG Labtech, Germany). The fold-increase in caspase-3, -8, and -9 activities were determined by direct comparison to the level of un-induced control. For the caspase inhibitor assay, cells were pretreated with a synthetic pan-caspase inhibitor (Z-VAD-FMK), caspase-8 inhibitor (Z-IETD-FMK) and caspase-9 inhibitor (Z-LEHD-FMK) for 1 h before the addition of conjugate and the cell death were analyzed by MTT assay as discussed earlier.

[4] = tested on: caspase-9 activity in PC-3 cells; assay: Caspase colorimetric protease assay; settings: PC-3, 10, 20 and 40 μM, 24 h
Protocol: as §1

[5] = tested on: caspase-3 activity in PC-3 cells; assay: Caspase colorimetric protease assay; settings: PC-3, 10, 20 and 40 μM, 24 h
Protocol: as §1

[6] = tested on: caspase-9 activity in LNCaP cells; assay: Caspase colorimetric protease assay; settings: 24 h
Protocol: as §1

[7] = tested on: caspase-8 activity in LNCaP cells; assay: Caspase colorimetric protease assay; settings: 24 h
Protocol: as §1

[8] = tested on: caspase-8 activity in PC-3 cells; assay: Caspase colorimetric protease assay; settings: PC-3, 24 h, high dose
Protocol: as §1

[9] = tested on: cleaved caspase-3 in PC-3 cells; assay: Akt/ERK siRNA silencing, cleaved caspase-3 immunoblot
Protocol: The siRNAs against human Akt and ERK and control siRNA were purchased commercially from Santa Cruz Biotechnology (USA). The LNCaP and PC-3 PCa cells were transfected with siRNAs (at a final concentration of 100 nM) using polyfect transfection reagent (Qiagen, CA, USA) according to manufacturer’s instructions. After 24 h of transfection, the cells were washed properly and replaced with fresh medium. The cells were then treated with 20 μM conjugate for 24 h, and finally protein lysates were prepared on completion of treatment. The levels of p-Akt, p-ERK and cleaved caspase-3 expressions were detected by Western blot analysis.
Figure 5 Differential role of PI3K/Akt and MAPK/ERK pathways in conjugate induced apoptosis of prostate cancer cells. Effects of siRNA mediated silencing of Akt and ERK on conjugate-induced apoptosis of (A) PC-3 and (B) LNCaP cells. LNCaP and PC-3 PCa cells were transfected with siRNAs (at a final concentration of 100 nM) using polyfect transfection reagent. After 24 h of transfection the cells were treated with 20 μM conjugate and allowed to grow for another 24 h. The cell lysates were prepared and the level of p-Akt, p-ERK and cleaved caspase-3 proteins were detected by immunoblot analysis. The histogram on the right panel of each figure represents densitometric analyses of the image data and expressed as percent of control where the results are mean ± SEM of three independent experiments. *and # represents statistically significant difference with respect to control and 20 μM conjugate treated groups respectively at p<0.05.

## COc1cc(/C=C/c2ccc(O)c(/C=N/NC(N)=S)c2)cc(OC)c1 [conjugate, Pterostilbene-isothiocyanate conjugate]
[1]; 10 μM
  reduction of DHT induced AR transcription: about 1.2 fold
[1]; 20 μM
  reduction of DHT induced AR transcription: ~1.3 fold
[1]; 40 μM
  reduction of DHT induced AR transcription: ~1.4 fold
[1]; below 40 μM, absence of 10 nM DHT, RT-PCR
  effect on expression of AR gene: no significant effects
[2]; 10 μM
  inhibition of DHT induced AR protein levels: 1.1 folds
  inhibition of AR protein levels: 2 folds
[2]; 20 μM
  inhibition of DHT induced AR protein levels: 1.8 folds
  inhibition of AR protein levels: 5 folds
[3]
  caspase-3 activity: significant increase
[4]
  caspase-9 enzyme activity: dose-dependent augmentation
[5]
  caspase-3 enzyme activity: dose-dependent augmentation
[6]
  caspase-9 activity: significant increase
[7]
  caspase-8 activity: significant increase
[8]
  caspase-8 activity: no such induction was observed
[9]; PC-3, 20 μM conjugate alone, 24 h
  increase in cleaved caspase-3 protein expression vs control: 3.7 folds
[9]; PC-3, 20 μM conjugate in presence of Akt siRNA
  increase in cleaved caspase-3 protein expression vs control: 4.8 folds
[9]; PC-3, 20 μM conjugate in presence of ERK siRNA
  increase in expression of caspase-3 vs control: 3.9 folds
